Test results taken from patent US20240279241A1, “PYRIDO[4,3-D]PYRIMIDINE COMPOUNDS CAPABLE OF INHIBITING KRAS MUTANT PROTEINS” (Redx Pharma PLC, priority 2021, published 2024).
Where two headings read alike, the source gives them in different places.

Key:
Format in all cases: biochemical
KRAS G13D = target: T1, KRAS G13D (Homo sapiens, UniProt P01116, G13D); assay: HTRF nucleotide exchange assay (NEA), KRAS G13D
T1 construct: Recombinant human RAS protein (2 nM); aa1-188 KRAS WT
Procedure: (§1) The capacity of compounds to bind KRAS G12D, other KRAS mutants and wildtype RAS isoforms was quantified using a HTRF nucleotide exchange assay. Recombinant human RAS protein (2 nM; aa1-188 KRAS WT, HRAS WT, NRAS WT, or KRAS containing the containing the G12D, G13D or Q61H amino acid substitutions, or 4 nM KRAS; aa1-188 containing the G12V, G12C, G12A or G12S amino acid substitution, an N-terminal 6×His-tag and leader sequence), and 2 nM Europium-labeled anti-6×His antibody were mixed in assay buffer (10 mM HEPES pH7.3, 150 mM NaCl, 5 mM MgCl2, 0.05% BSA, 0.0025% NP-40 and 100 mM KF) with various concentrations of compound in a 384-well plate and a volume of 5 uL. After a 60-minute incubation at room temperature, 5 ul of 200 nM EDA-GTP-DY647P1 (diluted in assay buffer) was added to the plate. Following 30-minute incubation at room temperature, time-resolved fluorescence was measured on a PerkinElmer Envision plate reader. DMSO (0.3%) and unlabeled […] (1 μM) or equivalent tool compound were used to generate the Max and Min assay signals, respectively. Data was analysed using a four-parameter logistic model to calculate IC50 values, with at least two independent replicates were performed for each compound.

KRAS Q61H = target: T2, KRAS Q61H (Homo sapiens, UniProt P01116, Q61H); assay: HTRF nucleotide exchange assay (NEA), KRAS Q61H
T2 construct: Recombinant human RAS protein (2 nM); aa1-188 KRAS WT
T2 sequence (P01116 1-188 isoform P01116-2 Q61H): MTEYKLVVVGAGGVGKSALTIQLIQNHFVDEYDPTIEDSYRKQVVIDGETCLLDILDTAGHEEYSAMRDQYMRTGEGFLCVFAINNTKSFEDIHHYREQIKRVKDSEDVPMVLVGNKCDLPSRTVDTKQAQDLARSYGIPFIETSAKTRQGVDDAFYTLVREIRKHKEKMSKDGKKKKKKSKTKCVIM
Procedure: as §1

KRAS G12C = target: T3, KRAS G12C (Homo sapiens, UniProt P01116, G12C); assay: HTRF nucleotide exchange assay (NEA), KRAS G12C
T3 construct: 4 nM KRAS; aa1-188 containing the G12V, G12C, G12A or G12S amino acid substitution
T3 sequence (P01116 1-188 isoform P01116-2 G12C): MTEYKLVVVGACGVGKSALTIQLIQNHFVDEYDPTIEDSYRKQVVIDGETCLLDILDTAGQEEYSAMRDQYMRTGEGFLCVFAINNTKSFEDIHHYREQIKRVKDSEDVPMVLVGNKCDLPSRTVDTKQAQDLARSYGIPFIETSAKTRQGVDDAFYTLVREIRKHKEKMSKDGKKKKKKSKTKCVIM
Method in brief: (§2)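 Assay buffer: 10 mM HEPES pH7.3, 150 mM NaCl, 5 mM MgCl2, 100 mM KF, BSA and NP-40. KRAS aa1-188 with His tag (2 nM WT/G13D, 4 nM G12C/G12S) was exposed to compound for 60 min before the labeled GTP was added (200 nM solution). Fluorescence was read after 30 min at room temperature.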

KRAS WT = target: T4, KRAS WT (Homo sapiens, UniProt P01116); assay: HTRF nucleotide exchange assay (NEA), KRAS WT
T4 construct: Recombinant human RAS protein (2 nM); aa1-188 KRAS WT
T4 sequence (P01116 1-188 isoform P01116-2): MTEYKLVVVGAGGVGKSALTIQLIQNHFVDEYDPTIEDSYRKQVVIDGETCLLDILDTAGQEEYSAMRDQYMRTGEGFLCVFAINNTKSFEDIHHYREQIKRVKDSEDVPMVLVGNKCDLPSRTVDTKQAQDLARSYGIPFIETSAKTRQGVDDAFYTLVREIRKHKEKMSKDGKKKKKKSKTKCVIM
Method in brief: as §2

KRAS G12S = target: T5, KRAS G12S (Homo sapiens, UniProt P01116, G12S); assay: HTRF nucleotide exchange assay (NEA), KRAS G12S
T5 construct: 4 nM KRAS; aa1-188 containing the G12V, G12C, G12A or G12S amino acid substitution
T5 sequence (P01116 1-188 isoform P01116-2 G12S): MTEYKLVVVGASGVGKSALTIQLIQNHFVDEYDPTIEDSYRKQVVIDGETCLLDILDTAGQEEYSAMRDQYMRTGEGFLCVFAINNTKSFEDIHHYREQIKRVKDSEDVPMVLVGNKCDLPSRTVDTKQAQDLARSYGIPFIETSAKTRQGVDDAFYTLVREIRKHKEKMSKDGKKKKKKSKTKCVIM
Procedure: as §1

KRAS G12V = target: T6, KRAS G12V (Homo sapiens, UniProt P01116, G12V); assay: HTRF nucleotide exchange assay (NEA), KRAS G12V
T6 construct: 4 nM KRAS; aa1-188 containing the G12V, G12C, G12A or G12S amino acid substitution
T6 sequence (P01116 1-188 isoform P01116-2 G12V): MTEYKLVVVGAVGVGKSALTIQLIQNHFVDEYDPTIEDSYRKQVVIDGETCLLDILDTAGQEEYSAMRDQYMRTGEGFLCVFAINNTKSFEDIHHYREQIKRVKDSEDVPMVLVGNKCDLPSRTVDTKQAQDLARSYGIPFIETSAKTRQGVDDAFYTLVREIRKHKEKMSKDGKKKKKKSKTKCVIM
Method in brief: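 After a further 30 minutes at room temperature, time-resolved fluorescence was read on a PerkinElmer Envision. The buffer contained 10 mM HEPES pH7.3, 150 mM NaCl, 5 mM MgCl2, 0.05% BSA, 0.0025% NP-40 and 100 mM KF. DMSO (0.3%) gave the Max signal and unlabeled GOP (1 μM) the Min signal. IC50 came from four-parameter logistic fits of at least two independent replicates.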

KRAS G12A = target: T7, KRAS G12A (Homo sapiens, UniProt P01116, G12A); assay: HTRF nucleotide exchange assay (NEA), KRAS G12A
T7 construct: 4 nM KRAS; aa1-188 containing the G12V, G12C, G12A or G12S amino acid substitution
T7 sequence (P01116 1-188 isoform P01116-2 G12A): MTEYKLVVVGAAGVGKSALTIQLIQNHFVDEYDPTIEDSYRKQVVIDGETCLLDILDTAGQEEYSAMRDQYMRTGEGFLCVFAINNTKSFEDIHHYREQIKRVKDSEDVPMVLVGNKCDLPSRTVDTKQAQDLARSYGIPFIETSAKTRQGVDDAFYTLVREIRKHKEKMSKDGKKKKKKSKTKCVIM
Procedure: as §1

KRAS G12D = target: T8, KRAS G12D (Homo sapiens, UniProt P01116, G12D); assay: HTRF nucleotide exchange assay (NEA), KRAS G12D; details: recombinant human KRAS G12D aa1-188, 2 nM; lowest class = % inhibition at 10 μM
T8 construct: Recombinant human RAS protein (2 nM)
T8 sequence (P01116 1-188 isoform P01116-2 G12D): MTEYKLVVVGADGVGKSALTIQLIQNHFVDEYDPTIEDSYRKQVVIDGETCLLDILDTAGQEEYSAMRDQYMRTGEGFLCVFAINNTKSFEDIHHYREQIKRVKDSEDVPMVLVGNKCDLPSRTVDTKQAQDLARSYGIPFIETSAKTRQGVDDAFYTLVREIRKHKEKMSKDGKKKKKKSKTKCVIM
Method in brief: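 Compound binding to KRAS G12D was measured by HTRF nucleotide exchange. Recombinant human KRAS G12D (aa1-188, N-terminal 6×His-tag, 2 nM) and 2 nM Europium anti-6×His antibody were combined with compound in 5 uL assay buffer in 384-well plates for 60 minutes at room temperature, then 5 ul of 200 nM EDA-GTP-DY647P1 was added for 30 minutes before time-resolved fluorescence reading.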

[1] = recombinant human KRAS G13D aa1-188, 2 nM, lowest class = % inhibition at 10 μM

T1 sequence (P01116 1-188 isoform P01116-2 G13D): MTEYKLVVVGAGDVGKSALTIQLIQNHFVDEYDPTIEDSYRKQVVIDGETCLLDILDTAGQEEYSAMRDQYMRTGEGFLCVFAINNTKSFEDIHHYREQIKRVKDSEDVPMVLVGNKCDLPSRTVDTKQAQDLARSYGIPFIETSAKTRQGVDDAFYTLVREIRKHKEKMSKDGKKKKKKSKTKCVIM

SMILES	IC50 (KRAS G13D)	IC50 (KRAS Q61H)	IC50 (KRAS G12C)	IC50 (KRAS WT)	IC50 (KRAS G12S)	IC50 (KRAS G12V)	IC50 (KRAS G12A)	IC50 (KRAS G12D)	IC50 (KRAS G13D; [1])
C#Cc1c(F)ccc2cc(O)cc(-c3ncc4c(N5CCCCCC5)nc(OC[C@@]56CCCN5C[C@H](F)C6)nc4c3F)c12 (relative stereo) [Example 84, 4-[4-(azepan-1-yl)-8-fluoro-2-[[trans-2-fluoro-1,2,3,5,6,7-hexahydropyrrolizin-8-yl]methoxy]pyrido[4,3-d]pyrimidin-7-yl]-5-ethynyl-6-fluoro-naphthalen-2-ol]	100 to 10000 nM	≤ 10 nM	≤ 10 nM	≤ 10 nM	≤ 10 nM	≤ 10 nM	≤ 10 nM	≤ 10 nM	–
C#Cc1c(F)ccc2cc(O)cc(-c3ncc4c(NCCCOC)nc(OC[C@@]56CCCN5C[C@H](F)C6)nc4c3F)c12 (relative stereo) [Example 85, 5-ethynyl-6-fluoro-4-[8-fluoro-2-[[trans-2-fluoro-1,2,3,5,6,7-hexahydropyrrolizin-8-yl]methoxy]-4-(3-methoxypropylamino)pyrido[4,3-d]pyrimidin-7-yl]naphthalen-2-ol]	–	10 to 100 nM	≤ 10 nM	≤ 10 nM	10 to 100 nM	≤ 10 nM	≤ 10 nM	≤ 10 nM	> 10000 nM
Oc1cc(-c2ncc3c(N4CC5CNCC5C4)nc(OCC45CCCN4CCC5)nc3c2F)c2ccccc2c1 (stereo not shown) [Example 1, 4-[4-(2,3,3a,4,6,6a-hexahydro-1H-pyrrolo[3,4-c]pyrrol-5-yl)-8-fluoro-2-(1,2,3,5,6,7-hexahydropyrrolizin-8-ylmethoxy)pyrido[4,3-d]pyrimidin-7-yl]naphthalen-2-ol]	100 to 10000 nM	100 to 10000 nM	100 to 10000 nM	100 to 10000 nM	–	100 to 10000 nM	–	10 to 100 nM	–
Oc1cc(-c2ncc3c(N4CCCOCC4)nc(OCC45CCCN4CCC5)nc3c2F)c2ccccc2c1 [Example 3, 4-[8-fluoro-2-(1,2,3,5,6,7-hexahydropyrrolizin-8-ylmethoxy)-4-(1,4-oxazepan-4-yl)pyrido[4,3-d]pyrimidin-7-yl]naphthalen-2-ol]	100 to 10000 nM	10 to 100 nM	≤ 10 nM	10 to 100 nM	10 to 100 nM	≤ 10 nM	≤ 10 nM	≤ 10 nM	–
Oc1cc(-c2ncc3c(N4CCC5(CCOC5)CC4)nc(OCC45CCCN4CCC5)nc3c2F)c2ccccc2c1 [Example 8, 4-[8-fluoro-2-(1,2,3,5,6,7-hexahydropyrrolizin-8-ylmethoxy)-4-(2-oxa-8-azaspiro[4.5]decan-8-yl)pyrido[4,3-d]pyrimidin-7-yl]naphthalen-2-ol]	100 to 10000 nM	100 to 10000 nM	100 to 10000 nM	100 to 10000 nM	–	100 to 10000 nM	–	100 to 10000 nM	–
O=C1CN(c2nc(OCC34CCCN3CCC4)nc3c(F)c(-c4cc(O)cc5ccccc45)ncc23)CCN1 [Example 10, 4-[8-fluoro-2-(1,2,3,5,6,7-hexahydropyrrolizin-8-ylmethoxy)-7-(3-hydroxy-1-naphthyl)pyrido[4,3-d]pyrimidin-4-yl]piperazin-2-one]	–	–	100 to 10000 nM	100 to 10000 nM	100 to 10000 nM	100 to 10000 nM	100 to 10000 nM	100 to 10000 nM	> 10000 nM
O=C1CCN(c2nc(OCC34CCCN3CCC4)nc3c(F)c(-c4cc(O)cc5ccccc45)ncc23)CCN1 [Example 13]	–	–	100 to 10000 nM	100 to 10000 nM	100 to 10000 nM	100 to 10000 nM	100 to 10000 nM	10 to 100 nM	> 10000 nM
O=C1CN(c2nc(OCC34CCCN3CCC4)nc3c(F)c(-c4cc(O)cc5ccccc45)ncc23)CCCN1 [Example 14, 4-[8-fluoro-2-(1,2,3,5,6,7-hexahydropyrrolizin-8-ylmethoxy)-7-(3-hydroxy-1-naphthyl)pyrido[4,3-d]pyrimidin-4-yl]-1,4-diazepan-2-one]	–	–	10 to 100 nM	100 to 10000 nM	100 to 10000 nM	10 to 100 nM	100 to 10000 nM	10 to 100 nM	> 10000 nM
CC1COCCN(c2nc(OCC34CCCN3CCC4)nc3c(F)c(-c4cc(O)cc5ccccc45)ncc23)C1 (stereo not shown) [Example 19, 4-[8-fluoro-2-(1,2,3,5,6,7-hexahydropyrrolizin-8-ylmethoxy)-4-(6-methyl-1,4-oxazepan-4-yl)pyrido[4,3-d]pyrimidin-7-yl]naphthalen-2-ol]	–	100 to 10000 nM	10 to 100 nM	10 to 100 nM	100 to 10000 nM	10 to 100 nM	10 to 100 nM	10 to 100 nM	> 10000 nM
Oc1cc(-c2ncc3c(N4CCCCC4)nc(OCC45CCCN4CCC5)nc3c2F)c2ccccc2c1 [Example 34, 4-[8-fluoro-2-(1,2,3,5,6,7-hexahydropyrrolizin-8-ylmethoxy)-4-(1-piperidyl)pyrido[4,3-d]pyrimidin-7-yl]naphthalen-2-ol]	–	–	10 to 100 nM	10 to 100 nM	100 to 10000 nM	10 to 100 nM	10 to 100 nM	10 to 100 nM	> 10000 nM
Oc1cc(-c2ncc3c(N4CCCSCC4)nc(OCC45CCCN4CCC5)nc3c2F)c2ccccc2c1 [Example 38, 4-[8-fluoro-2-(1,2,3,5,6,7-hexahydropyrrolizin-8-ylmethoxy)-4-(1,4-thiazepan-4-yl)pyrido[4,3-d]pyrimidin-7-yl]naphthalen-2-ol]	–	10 to 100 nM	≤ 10 nM	10 to 100 nM	10 to 100 nM	≤ 10 nM	≤ 10 nM	10 to 100 nM	> 10000 nM
Oc1cc(-c2ncc3c(N4CCCC5(CCOC5)C4)nc(OCC45CCCN4CCC5)nc3c2F)c2ccccc2c1 (stereo not shown) [Example 56, 4-[8-fluoro-2-(1,2,3,5,6,7-hexahydropyrrolizin-8-ylmethoxy)-4-(2-oxa-9-azaspiro[4.5]decan-9-yl)pyrido[4,3-d]pyrimidin-7-yl]naphthalen-2-ol]	–	100 to 10000 nM	100 to 10000 nM	100 to 10000 nM	100 to 10000 nM	100 to 10000 nM	100 to 10000 nM	100 to 10000 nM	> 10000 nM
